For this experiment, the target named is Mu-type opioid receptor (Homo sapiens, UniProt P35372). Put plainly: Mu Opioid Receptor Binding Assay and Antagonist Functionality Assay. Particulars: pH 7.4; 22 °C. Here is the method:
In the binding assays, the results were expressed as percent inhibition of the control radioligand specific binding. The IC50 values (concentration causing a half maximal inhibition of control specific binding) were determined by non-linear regression analysis of the competition curves using Hill equation curve fitting. The inhibition constants (Ki) were calculated from the Cheng Prusoff equation. EC50/IC50 measures the antagonist activities on mu-agonist triggered luminescence in AequoScreen cells.

Some results are limits rather than exact numbers.

Chain of Mu-type opioid receptor (P35372 whole entry): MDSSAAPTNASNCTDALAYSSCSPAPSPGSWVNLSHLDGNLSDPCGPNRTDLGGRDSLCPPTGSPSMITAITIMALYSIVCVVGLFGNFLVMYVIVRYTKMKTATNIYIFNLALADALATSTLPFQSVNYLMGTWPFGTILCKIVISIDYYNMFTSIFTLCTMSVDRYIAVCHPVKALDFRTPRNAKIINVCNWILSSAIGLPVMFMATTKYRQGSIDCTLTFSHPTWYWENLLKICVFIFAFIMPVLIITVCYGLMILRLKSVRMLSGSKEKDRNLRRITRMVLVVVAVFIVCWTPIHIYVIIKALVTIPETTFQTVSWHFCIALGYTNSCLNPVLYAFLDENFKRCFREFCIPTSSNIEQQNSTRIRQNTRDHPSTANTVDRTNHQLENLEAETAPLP

Take `CC(C)N[C@@H]1CCn2c(=O)[nH]c3cccc(c32)[C@H]1O` [(9R,10R)-9-hydroxy-10-(propan-2-ylamino)-1,3-diazatricyclo[6.4.1.0^{4,13}]trideca-4(13),5,7-trien-2-one]: the half-maximal effective concentration (EC50) was > 1000 µM. For `CC(C)N[C@H]1CCn2c(=O)[nH]c3cccc(c32)[C@@H]1O` [(9S,10S)-9-hydroxy-10-(propan-2-ylamino)-1,3-diazatricyclo[6.4.1.0^{4,13}]trideca-4(13),5,7-trien-2-one] the value was 140 µM.

As a reminder, the EC50 is the midpoint of the concentration-response curve. Higher therefore signals weaker potency.

(Values after BindingDB's records for doi:10.1021/jm801211c (Intervet Innovation, 2009).)
